In article PMC4805779, “The Ascaris suum nicotinic receptor, ACR-16, as a drug target: Four novel negative allosteric modulators from virtual screening” (International Journal for Parasitology: Drugs and Drug …, 2016):
Where a name gives a salt, the structure may show the parent alone. Read-outs that look alike come from different tables or passages of the source.

Experiments:
Asu-ACR-16 [1] = biological target: T1, Asu-ACR-16 (Ascaris suum, UniProt F1KYJ9); test: cell-based; type: cell-based
T1 construct: Full-length Asu-acr-16 cDNA was amplified with the forward primer; expressed in transfected cells; host or cells: Xenopus laevis oocytes injected with Asu-acr-16 cRNA plus Asu-ric-3 cRNA
T1 sequence (F1KYJ9 1-504): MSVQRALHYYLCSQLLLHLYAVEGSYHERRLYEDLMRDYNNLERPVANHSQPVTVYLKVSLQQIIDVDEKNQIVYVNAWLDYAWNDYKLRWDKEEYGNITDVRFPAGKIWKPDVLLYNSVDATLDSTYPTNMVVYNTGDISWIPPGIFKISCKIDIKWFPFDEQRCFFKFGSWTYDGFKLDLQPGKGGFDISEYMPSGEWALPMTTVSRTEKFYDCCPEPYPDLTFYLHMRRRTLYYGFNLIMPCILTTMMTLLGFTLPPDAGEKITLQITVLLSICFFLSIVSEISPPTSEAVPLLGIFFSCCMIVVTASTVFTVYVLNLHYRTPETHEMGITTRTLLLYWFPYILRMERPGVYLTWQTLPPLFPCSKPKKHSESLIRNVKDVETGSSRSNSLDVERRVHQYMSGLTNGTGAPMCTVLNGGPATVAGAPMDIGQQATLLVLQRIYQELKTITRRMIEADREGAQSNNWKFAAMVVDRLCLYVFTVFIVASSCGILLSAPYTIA
Method: (§1) We used two-electrode voltage-clamp electrophysiology to record the inward current generated by the activated Asu-ACR-16 receptors expressed in X. laevis oocytes. 100 μM BAPTA-AM (final concentration) was added into the oocyte incubation solution 4 h prior to recording, to prevent the current produced by the endogenous calcium-activated chloride channels during recording. An Axoclamp 2B amplifier (Molecular Devices, CA, USA) was used for recording and oocytes were held at −60 mV. A PC computer with software Clampex 9.2 (Molecular Devices, CA, USA) was used to acquire the recording data. The microelectrodes used to measure current in oocytes were pulled on a Flaming/Brown horizontal electrode puller (Model P-97, Sutter Instruments), filled with 3M KCl and had resistances of 20–30 MΩ. The microelectrode tips were broken back carefully with Kimwipes (Wilmington, NC, USA) to reduce the resistance to 2–5 MΩ. […] Oocytes were placed into a tiny groove of the narrow oocyte recording chamber.
(§2) 100 μM acetylcholine was applied initially for 10 s as a control to check the viability of the oocytes and Asu-ACR-16 expression for all the recordings. Recording solution was then used to wash out the drug from the oocytes for 2–3 min before next application of drug perfusion.
(§3) The data from electrophysiological recordings were analyzed using Clampfit 9.2 (Molecular Devices, CA, and USA) and GraphPad Prism 5.0 (Graphpad Software Inc., CA, USA). […] Concentration-response relationships or concentration-inhibition (%) relationships were analyzed by fitting data points into the Hill equation, with at least four replicates of each experiment set.

C. elegans strain N2 = test: C. elegans L4 larvae motility (thrashing) in M9 buffer; type: in vivo, Caenorhabditis elegans; conditions: for Effect on locomotion of worms vs negative control: 100 μM, 0-20 min
Method: The wild-type C. elegans strain N2 were obtained from the Caenorhabditis Genetics Center (University of Minnesota, MN, USA). […] We counted the number of worms with normal motility in M9 buffer with diluted drugs from the stock solutions (≤1% DMSO) at 0, 5, 10, 15 and 20 min. Five replicates were applied for each treatment. Motility between negative control (1% DMSO, final concentration) and drug treated worms were compared at each time point using student t-test.

Asu-ACR-16 [2] = biological target: T1, Asu-ACR-16; test: cell-based; type: cell-based; conditions: for Hill slope (nH): inhibitory concentration-response vs 100 μM ach; for Inhibitionmax (maximum inhibition): of currents elicited by 100 μM ach
Method: The nanoject II microinjector (Drummond Scientific, PA, USA) was used to injected the cRNA mixture into the animal pole of the de-folliculated X. laevis oocyte (Ecocyte Bioscience, Austin, TX, USA).
as §1, §2, §3

[3] = inhibition of currents elicited by 100 μM ach, oocytes held at −60 mV, mean ± S.E.M., read-out: IC50

Row | SMILES | Hill slope (nH) (Asu-ACR-16 [2]; mean ± S.E.M.) | Inhibitionmax (maximum inhibition) (Asu-ACR-16 [2]; mean ± S.E.M.) | Hill slope (nH) of ach curve (Asu-ACR-16 [1]; in presence of 3 μM hit) | IC50 (Asu-ACR-16 [2]; [3]) | Effect on locomotion of worms vs negative control (C. elegans strain N2; L4 larvae) | other results
1 | CC(=O)OCC[N+](C)(C)C [ach, acetylcholine chloride] | – | – | – | – | – | Hill slope (nH) (Asu-ACR-16 [1]; ach alone (control, absence of hits)): 3.05 ± 0.07; Emax (Asu-ACR-16 [1]; read-out: Imax (maximum response)): 97.5 ± 1.19%
2 | Cl.N#Cc1ccc2c(c1)CCN(CC[C@H]1CC[C@H](NC(=O)c3ccnc4ccccc34)CC1)C2.O [SB-277011-A, SB-277011-A hydrochloride hydrate] | – | – | – | – | – | Time to recovery of normal motility (C. elegans strain N2; L4 larvae, 30 μM): ≤ 20 min; Drop in number of normal worms with thrashing-like movement (C. elegans strain N2; L4 larvae, 30 μM, 5 min, p < 0.01): 60%; Number of worms with motility that appeared normal (C. elegans strain N2; L4 larvae, 30 μM, 10 min, p < 0.05): 50%; Number of worms with motility that appeared normal (C. elegans strain N2; L4 larvae, 30 μM, 15 min, p > 0.05): 85%; Number of worms with motility that appeared normal (C. elegans strain N2; L4 larvae, 30 μM, after 20 min): returned to near negative control values; Effect on motility of adult C. elegans compared with larvae (C. elegans strain N2; adult worms): less effective on adult C. elegans
3 | CC(C)(C)[C@]1(O)CCN2C[C@H]3c4ccccc4CCc4cccc(c43)[C@@H]2C1 [(+)-butaclamol Cl, (+)-butaclamol hydrochloride] | 1.34 ± 0.29 | 79.53 ± 12.41% | 12.75 ± 3.63 | – | – | IC50 (Asu-ACR-16 [2]): 9.85 ± 2.37 µM; Hill slope (nH) of ach curve (Asu-ACR-16 [1]; in presence of 1 μM hit): 9.64 ± 4.14
4 | O=C(OCC1c2ccccc2-c2ccccc21)N1CCC(C(=O)O)(c2cccc3ccccc23)CC1 [fmoc-1, fmoc-4-(naphthalen-1-yl)-piperidine-4-carboxylic acid] | 1.97 ± 0.37 | 82.49 ± 4.74% | 1.76 ± 0.21 | 10 ± 1.38 µM | No visual effects | –
5 | O=C(OCC1c2ccccc2-c2ccccc21)N1CCC(C(=O)O)(c2ccc3ccccc3c2)CC1 [fmoc-2, fmoc-4-(naphthalen-2-yl)-piperidine-4-carboxylic acid] | 1.22 ± 0.17 | 80.34 ± 10.32% | 2.54 ± 0.18 | 16.7 ± 1.95 µM | No visual effects | –
6 | c1ccc([C@H]2CN3CCSC3=N2)cc1 [levamisole, Levamisole hydrochloride] | – | – | – | – | – | Time without recovery of normal motility (C. elegans strain N2; L4 larvae, 30 μM): > 24 h
